Assays:
A549 cells = test: Inhibition of KRas-mediated phosphorylation of ERK (Cisbio HTRF pERK), A549 cells; assay type: cell-based; settings: Homo sapiens; for inhibition at 0.1 µM: single point at 100 nM, 3 hrs compound incubation; for IC50: A549, 3 h, 3 hr compound incubation, Cisbio pERK HTRF
KRas G12D = KRas G12D (Homo sapiens, UniProt P01116, G12D); test: biochemical; settings: Binding to KRas (IC50 nM) G12D, TR-FRET displacement, KRas G12D
H727 cells = test: Inhibition of KRas-mediated phosphorylation of ERK (Cisbio HTRF pERK), H727 cells; assay type: cell-based; settings: Homo sapiens; for IC50: NCI-H727, 3 h, 3 hr compound incubation, Cisbio pERK HTRF; for inhibition at 0.1 µM: NCI-H727, single point at 100 nM, 3 hrs compound incubation
MKN1 cells = test: Inhibition of KRas-mediated phosphorylation of ERK (Cisbio HTRF pERK), MKN1 cells; assay type: cell-based; settings: Homo sapiens, MKN-1, 3 hour compound incubation, Cisbio pERK HTRF
Procedure, shortened: (§1)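 Seeding density of 6,000 cells per well was used, with cultures kept in RPMI/10% FBS from day 1.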

KRas G12V = KRas G12V (Homo sapiens, UniProt P01116, G12V); test: biochemical; settings: Binding to KRas (IC50 nM) G12V, TR-FRET displacement, KRas G12V
PSN1 cells = test: Inhibition of KRas-mediated phosphorylation of ERK (Cisbio HTRF pERK), PSN1 cells; assay type: cell-based; settings: Homo sapiens, PSN1, 3 h, 3 hour compound incubation, Cisbio pERK HTRF
Procedure, shortened: as §1

HCT116 cells = test: Inhibition of KRas-mediated phosphorylation of ERK (Cisbio HTRF pERK), HCT116 cells; assay type: cell-based; settings: Homo sapiens; for inhibition at 0.1 µM: HCT-116, single point at 100 nM, 3 hrs compound incubation; for IC50: HCT-116, 3 h, 3 hr compound incubation, Cisbio pERK HTRF
H460 cells = test: Inhibition of KRas-mediated phosphorylation of ERK (Cisbio HTRF pERK), H460 cells; assay type: cell-based; settings: Homo sapiens; for inhibition at 0.1 µM: NCI-H460, single point at 100 nM, 3 hrs compound incubation; for IC50: NCI-H460, 3 h, 3 hr compound incubation, Cisbio pERK HTRF
ASPC1 cells = test: Inhibition of KRas-mediated phosphorylation of ERK (Cisbio HTRF pERK), ASPC1 cells; assay type: cell-based; settings: Homo sapiens, AsPC-1 cells; for IC50: ASPC1, 3 h, 3 hr compound incubation, Cisbio pERK HTRF; for inhibition at 0.1 µM: ASPC1, single point at 100 nM, 3 hrs compound incubation
H358 cells = test: Inhibition of KRas-mediated phosphorylation of ERK (Cisbio HTRF pERK), H358 cells; assay type: cell-based; settings: Homo sapiens; for inhibition at 0.1 µM: NCI-H358, single point at 100 nM, 3 hrs compound incubation; for IC50: NCI-H358, 3 h, 3 hr compound incubation, Cisbio pERK HTRF
KRas G12R = KRas G12R (Homo sapiens, UniProt P01116, G12R); test: biochemical; settings: Binding to KRas (IC50 nM) G12R, TR-FRET displacement, KRas G12R
Sequence of KRas G12R (P01116 1-169 isoform P01116-2 G12R): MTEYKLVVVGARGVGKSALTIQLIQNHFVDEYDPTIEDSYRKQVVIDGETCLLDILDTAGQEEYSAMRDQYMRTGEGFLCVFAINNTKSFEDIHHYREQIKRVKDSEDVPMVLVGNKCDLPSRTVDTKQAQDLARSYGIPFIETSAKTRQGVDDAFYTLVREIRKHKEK

Sequence of KRas G12V (P01116 1-169 isoform P01116-2 G12V): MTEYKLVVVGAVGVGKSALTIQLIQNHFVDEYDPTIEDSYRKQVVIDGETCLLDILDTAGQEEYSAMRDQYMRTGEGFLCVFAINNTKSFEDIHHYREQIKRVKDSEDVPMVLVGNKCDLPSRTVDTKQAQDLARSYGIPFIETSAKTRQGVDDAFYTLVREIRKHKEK
Sequence of KRas G12D (P01116 1-169 isoform P01116-2 G12D): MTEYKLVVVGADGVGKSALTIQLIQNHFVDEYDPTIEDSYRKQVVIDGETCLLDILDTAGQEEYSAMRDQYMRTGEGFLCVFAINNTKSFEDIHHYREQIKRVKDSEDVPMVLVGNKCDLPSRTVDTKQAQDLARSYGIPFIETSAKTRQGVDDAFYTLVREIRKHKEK

CCc1c(F)ccc2cc(O)cc(N3CCc4c(nc(OC[C@@]56CCCN5C[C@H](F)C6)nc4N4CCCn5nc(C(=O)N6[C@@H]7CNC[C@H]6C7)cc5C4)C3)c12 [Example 499, (1R,5S)-3,6-diazabicyclo[3.1.1]heptan-6-yl(5-(7-(8-ethyl-7-fluoro-3-hydroxynaphthalen-1-yl)-2-(((2R,7aS)-2-fluorohexahydro-1H-pyrrolizin-7a-yl)methoxy)-5,6,7,8-tetrahydropyrido[3,4-d]pyrimidin-4-yl)-5,6,7,8-tetrahydro-4H-pyrazolo[1,5-a][1,4]diazepin-2-yl)methanone]
inhibition at 0.1 µM (A549 cells): 25% | IC50 (KRas G12D): < 2 nM | IC50 (H727 cells): 168 nM | inhibition at 0.1 µM (H727 cells): 37% | IC50 (MKN1 cells): 186 nM | IC50 (KRas G12V): < 2 nM | IC50 (PSN1 cells): > 10000 nM | inhibition at 0.1 µM (HCT116 cells): 11% | inhibition at 0.1 µM (H460 cells): 6% | IC50 (ASPC1 cells): 41 nM | inhibition at 0.1 µM (ASPC1 cells): 47% | inhibition at 0.1 µM (H358 cells): 57% | IC50 (KRas G12R): < 2 nM

CCc1c(F)ccc2cc(O)cc(N3CCc4c(nc(OC[C@@]56CCCN5C[C@H](F)C6)nc4N4CCCn5nc(C(=O)N6CC7CC(C6)N(C)C7)cc5C4)C3)c12 (stereo partly drawn) [Example 500, (5-(7-(8-ethyl-7-fluoro-3-hydroxynaphthalen-1-yl)-2-(((2R,7aS)-2-fluorohexahydro-1H-pyrrolizin-7a-yl)methoxy)-5,6,7,8-tetrahydropyrido[3,4-d]pyrimidin-4-yl)-5,6,7,8-tetrahydro-4H-pyrazolo[1,5-a][1,4]diazepin-2-yl)(6-methyl-3,6-diazabicyclo[3.2.1]octan-3-yl)methanone]
inhibition at 0.1 µM (A549 cells): 46% | IC50 (KRas G12D): < 2 nM | IC50 (H727 cells): 203 nM | inhibition at 0.1 µM (H727 cells): 20% | IC50 (MKN1 cells): 37.2 nM | IC50 (KRas G12V): < 2 nM | IC50 (PSN1 cells): > 10000 nM | inhibition at 0.1 µM (HCT116 cells): 11% | inhibition at 0.1 µM (H460 cells): 22% | IC50 (ASPC1 cells): 25 nM | inhibition at 0.1 µM (ASPC1 cells): 91% | inhibition at 0.1 µM (H358 cells): 74% | IC50 (KRas G12R): < 2 nM

CCc1c(F)ccc2cc(O)cc(N3CCc4c(nc(OC[C@@]56CCCN5C[C@H](F)C6)nc4N4CCCn5nc(C(=O)N6CCC7CC6CN7C)cc5C4)C3)c12 (stereo partly drawn) [Example 501, (5-(7-(8-ethyl-7-fluoro-3-hydroxynaphthalen-1-yl)-2-(((2R,7aS)-2-fluorohexahydro-1H-pyrrolizin-7a-yl)methoxy)-5,6,7,8-tetrahydropyrido[3,4-d]pyrimidin-4-yl)-5,6,7,8-tetrahydro-4H-pyrazolo[1,5-a][1,4]diazepin-2-yl)(6-methyl-2,6-diazabicyclo[3.2.1]octan-2-yl)methanone]
inhibition at 0.1 µM (A549 cells): 27% | IC50 (KRas G12D): < 2 nM | IC50 (H727 cells): 132 nM | inhibition at 0.1 µM (H727 cells): 40% | IC50 (MKN1 cells): 41.2 nM | IC50 (KRas G12V): < 2 nM | IC50 (PSN1 cells): > 10000 nM | inhibition at 0.1 µM (HCT116 cells): 23% | inhibition at 0.1 µM (H460 cells): 17% | IC50 (ASPC1 cells): 23 nM | inhibition at 0.1 µM (ASPC1 cells): 86% | inhibition at 0.1 µM (H358 cells): 95% | IC50 (KRas G12R): 2 nM

CCc1c(F)ccc2cc(O)cc(N3CCc4c(nc(OC[C@@]56CCCN5C[C@H](F)C6)nc4N4CCCCn5nc(C(=O)NC(C)C)c(Cl)c5C4)C3)c12 [Example 506, 3-chloro-5-(7-(8-ethyl-7-fluoro-3-hydroxynaphthalen-1-yl)-2-(((2R,7aS)-2-fluorotetrahydro-1H-pyrrolizin-7a(5H)-yl)methoxy)-5,6,7,8-tetrahydropyrido[3,4-d]pyrimidin-4-yl)-N-isopropyl-4,5,6,7,8,9-hexahydropyrazolo[1,5-a][1,4] diazocine-2-carboxamide]
IC50 (A549 cells): 17 nM | IC50 (KRas G12D): < 2 nM | IC50 (H727 cells): 5 nM | inhibition at 0.1 µM (H727 cells): 80% | IC50 (MKN1 cells): 9.9 nM | IC50 (KRas G12V): < 2 nM | IC50 (PSN1 cells): 1090 nM | IC50 (HCT116 cells): 298 nM | inhibition at 0.1 µM (HCT116 cells): 34% | IC50 (H460 cells): 81 nM | inhibition at 0.1 µM (H460 cells): 71% | IC50 (ASPC1 cells): 10 nM | inhibition at 0.1 µM (ASPC1 cells): 97% | IC50 (H358 cells): 4 nM | IC50 (KRas G12R): < 2 nM

CCc1c(F)ccc2cc(O)cc(N3CCc4c(nc(OC[C@@]56CCCN5C[C@H](F)C6)nc4N4CCCCn5nc(C(=O)N(C)C)c(Br)c5C4)C3)c12 [Example 507, 3-bromo-5-(7-(8-ethyl-7-fluoro-3-hydroxynaphthalen-1-yl)-2-(((2R,7aS)-2-fluorotetrahydro-1H-pyrrolizin-7a(5H)-yl)methoxy)-5,6,7,8-tetrahydropyrido[3,4-d]pyrimidin-4-yl)-N,N-dimethyl-4,5,6,7,8,9-hexahydropyrazolo[1,5-a][1,4] diazocine-2-carboxamide]
IC50 (A549 cells): 6 nM | inhibition at 0.1 µM (A549 cells): 76% | IC50 (KRas G12D): < 2 nM | IC50 (H727 cells): 4 nM | inhibition at 0.1 µM (H727 cells): 79% | IC50 (MKN1 cells): 5.5 nM | IC50 (KRas G12V): < 2 nM | IC50 (PSN1 cells): 1320 nM | IC50 (HCT116 cells): 39 nM | inhibition at 0.1 µM (HCT116 cells): 51% | IC50 (H460 cells): 13 nM | inhibition at 0.1 µM (H460 cells): 84% | IC50 (ASPC1 cells): 10 nM | inhibition at 0.1 µM (ASPC1 cells): 96% | IC50 (H358 cells): 1 nM | inhibition at 0.1 µM (H358 cells): 101% | IC50 (KRas G12R): < 2 nM

Cc1c(F)ccc2cc(O)cc(N3CCc4c(nc(OC[C@@]56CCCN5C[C@H](F)C6)nc4N4CCCC5(CNS(=O)(=O)N5)C4)C3)c12 (stereo partly drawn) [Example 512, 7-(7-(7-fluoro-3-hydroxy-8-methylnaphthalen-1-yl)-2-(((2R,7aS)-2-fluorohexahydro-1H-pyrrolizin-7a-yl)methoxy)-5,6,7,8-tetrahydropyrido[3,4-d]pyrimidin-4-yl)-2-thia-1,3,7-triazaspiro[4.5]decane 2,2-dioxide]
inhibition at 0.1 µM (A549 cells): 71% | IC50 (KRas G12D): < 2 nM | IC50 (H727 cells): 85 nM | inhibition at 0.1 µM (H727 cells): 42% | IC50 (MKN1 cells): 12.6 nM | IC50 (KRas G12V): < 2 nM | IC50 (PSN1 cells): 276 nM | inhibition at 0.1 µM (HCT116 cells): 56% | inhibition at 0.1 µM (H460 cells): 79% | IC50 (ASPC1 cells): 30 nM | inhibition at 0.1 µM (ASPC1 cells): 74% | inhibition at 0.1 µM (H358 cells): 92% | IC50 (KRas G12R): 2 nM

CCc1c(F)ccc2cc(O)cc(N3CCc4c(nc(OC[C@@]56CCCN5C[C@H](F)C6)nc4N4C[C@@H]5C[C@H](C4)[C@H](O)C5)C3)c12 [Example 585B, (1R,5R,6R)-3-(7-(8-ethyl-7-fluoro-3-hydroxynaphthalen-1-yl)-2-(((2R,7aS)-2-fluorotetrahydro-1H-pyrrolizin-7a(5H)-yl)methoxy)-5,6,7,8-tetrahydropyrido[3,4-d]pyrimidin-4-yl)-3-azabicyclo[3.2.1]octan-6-ol]
IC50 (A549 cells): 125 nM | IC50 (KRas G12D): 3 nM | IC50 (H727 cells): 191 nM | IC50 (MKN1 cells): 19.7 nM | IC50 (KRas G12V): < 2 nM | IC50 (PSN1 cells): 6500 nM | IC50 (HCT116 cells): 439 nM | IC50 (H460 cells): 163 nM | IC50 (ASPC1 cells): 273 nM | IC50 (H358 cells): 111 nM | IC50 (KRas G12R): < 2 nM

CCc1c(F)ccc2cc(O)cc(N3CCc4c(nc(OC[C@]56CCCN5[C@H](COC(=O)N(C)C)CC6)nc4N4CCCn5nc(C(=O)N(C)C)cc5C4)C3)c12 [Example 586, ((3S,7aR)-7a-(((4-(2-(dimethylcarbamoyl)-7,8-dihydro-4H-pyrazolo[1,5-a][1,4]diazepin-5(6H)-yl)-7-(8-ethyl-7-fluoro-3-hydroxynaphthalen-1-yl)-5,6,7,8-tetrahydropyrido[3,4-d]pyrimidin-2-yl)oxy)methyl)hexahydro-1H-pyrrolizin-3-yl)methyl dimethylcarbamate]
IC50 (A549 cells): 48 nM | IC50 (KRas G12D): < 2 nM | IC50 (H727 cells): 29 nM | IC50 (MKN1 cells): 38 nM | IC50 (KRas G12V): < 2 nM | IC50 (PSN1 cells): 8160 nM | IC50 (HCT116 cells): 336 nM | IC50 (H460 cells): 137 nM | IC50 (ASPC1 cells): 19 nM | IC50 (H358 cells): 23 nM | IC50 (KRas G12R): < 2 nM

From patent US20250368649A1, “TETRAHYDROPYRIDOPYRIMIDINE PAN-KRAS INHIBITORS” (Mirati Therapeutics, Inc., priority 2022, published 2025)
